From US20230285357A1, “COMPOSITIONS AND METHODS FOR […] CELLS” (The Regents of the University of California, priority 2020, published 2023)

How the values were obtained:
[1] = tested on: promoter region of Smad1 gene; experiment: ChIP assay of β-catenin DNA-binding and histone modification in promoter of Smad1 gene; assay type: cell-based, mouse
Source text: The expression of transcription factors that are known to be involved in bone formation or vascular development were screened. […] To determine if excess β-catenin affected SMAD1 expression, β-catenin in SB216763-treated osteoblasts was depleted by using siRNA. […] DNA-binding sites of β-catenin by locating the binding motifs in Smad1 gene was explored, and identified four individual sites located at −196 bp, −1454 bp, −2805 bp and −4729 bp upstream of exon1 of Smad1 gene (FIG. 3, Part D). […] Then, transcriptional status of Smad1 was determined by examining the histone modification, including trimethylated histone H3 lysine 4 (H3K4me3) associated with active transcription and H3K27me3 a closed chromatin mark.
βChIP assays were performed as previously described. Specific antibodies for β-catenin were used (R&D System, MAB2006), H3k4me3 (Abcam, ab8580) and H3k27me3 (Abcam, ab6002). The primers for the real-time PCR: 5′GAAAATAACACAGGCTTTG3′ (SEQ ID NO: 13) and 5′ GCTCCCCGAGCCTGGATT 3′ (SEQ ID NO: 14); 5′ GGACAGAGGCTCTCATTCC 3′ (SEQ ID NO: 15) and 5′[…]3′ (SEQ ID NO: 16) and 5′[…]3′ (SEQ ID NO: 17) 5′[…]3′ (SEQ ID NO: 18); 5′[…]3′ (SEQ ID NO: 19) and 5′[…]3′ (SEQ ID NO: 20).

[2] = tested on: Flk1-eGFP osteoblasts (mouse osteoblast line MC3T3); experiment: High throughput screen for eGFP expression in Flk1-eGFP osteoblasts; assay type: cell-based; settings: after 14 days of treatment
Source text: A high throughput screen was generated by modifying the mouse osteoblast line MC3T3. Fetal liver kinase 1 (Flk1) promoter-driven enhanced green fluorescent protein (eGFP) was introduced into these osteoblasts. […] Several libraries of small molecules, including a FDA-approved drug library, a UCLA in-house collection, and a custom set of compounds were screened. These libraries contained more than 22,000 small molecules ranging from natural products to synthesized compounds. […] It was further determined the specificity of endothelial differentiation by closely examining other vascular lineage markers including smooth muscle cells (SMCs), pericytes, and fibroblasts by using real-time PCR. […] Because GSK3 is important in glucose metabolism, the expression of genes related to glucose metabolism was determined in the SB216763-treated osteoblasts, such as casein kinase 2, glucose transporter 4, and insulin receptor substrates 1 and 2.
MC3T3 cells were stably infected with Flk1 promoter-driven eGFP by using Flk1-eGFP lentivirus (GeneCopoeia™). […] The plates were transferred and delivered by a Thermo Scientific™ Spinnaker™ Robot (ThermoFisher Scientific). eGFP expression was determined and imaged using a FlexStation II and Victor 3V (Perkin Elmer) every day for two weeks.

ectopic bone formation = experiment: Ectopic bone formation in vivo after transplantation of treated cells; design: species or system mouse
Procedure: To assess the functional capacity of SB216763-treated osteoblasts, they were treated with osteogenic induction media in vitro. […] A transplantation experiment was then performed to examine the capacity for bone formation using a well-established bone formation assay in vivo. This assay was adapted and eGFP positive cells were used, which were isolated from SB216763-treated Flk1-eGFP osteoblasts (FIG. 2, Part A).
The cells were then subjected to osteogenic induction media. […] Cells was transplanted into nude mice to test ectopic bone formation.
MicroCT imaging was performed at the Crump Imaging Center at UCLA. All the samples were scanned on a high-resolution, volumetric microCT scanner (CT125). The image data were acquired with the following parameters: 10 μm isotropic voxel resolution; 200 ms exposure time; 2,000 views and 5 frames per view. The microCT-generated DICOM files were used to analyze the samples and to create volume renderings of the regions of interest. The raw data files were viewed using the MicroView 3-D volume viewer and analysis tool (GE Healthcare) and AltaViewer™ Software. Additionally, images of the samples were generated using SCIRun (Scientific Computing and Imaging Institute).
All the surgeries were performed on a heated pad with a connection to a continuous flow of isoflurane. Ectopic bone formation was performed as previously described: 5×10^5 cells were mixed with 40 mg hydroxyapatite/tricalcium phosphate power (SALVIN™, ORASTRUCT-0.5 CC) and incubated in a 1 ml syringe at 37° C. in 5% CO2 overnight. After disinfection with 70% ethanol, a skin incision was made on the back of mouse. A subcutaneous pouch was formed by blunt dissection. The mixture of cells and hydroxyapatite/tricalcium phosphate was transplanted into the pouch and the incision was closed. The implants were examined by microCT imaging and histology 12 weeks after transplantation.

Structure (SMILES): Cn1cc(C2=C(c3ccc(Cl)cc3Cl)C(=O)NC2=O)c2ccccc21 [SB216763]
- histone modification H3K4me3 and H3K27me3 around β-catenin binding sites in Smad1 promoter ([1]; treated osteoblasts): lower abundance of H3K4me3 with higher abundance H3K27me3
- β-catenin abundance around binding sites upstream of exon1 of Smad1 gene ([1]; treated osteoblasts vs non-treated controls): more abundance of β-catenin
- cell morphology [2]: converted osteoblasts into EC-like morphology
- eGFP expression [2]: strongly activated eGFP expression
- osteocytes in implants, histology and immunostaining (ectopic bone formation; SB216763-treated cells with SMAD1 overexpression or knockdown of β-catenin): presence of osteocytes
- osteocytes in implants, histology and immunostaining (ectopic bone formation; implants with eGFP positive cells from treated osteoblasts): lack of osteocytes
- ectopic bone by microCT (ectopic bone formation; implants with eGFP positive cells from treated osteoblasts vs osteoblast controls): smaller size of ectopic bone, less trabecular formation and less bone volume
